Measurements taken from the supplement of paper PMC10331698.
± gives the standard deviation of the averaged measurements.

Legend:
Assay in all cases: level (log10 ratio to DMSO vehicle control); higher = higher biomarker level / cell amount than vehicle control
[1] = compound: O=S(=O)(Cl)C(F)(F)C(F)(F)C(F)(F)C(F)(F)C(F)(F)C(F)(F)C(F)(F)C(F)(F)F [Perfluoro-1-octanesulfonyl chloride]; conditions: in DMSO
Procedure: (§1)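 BioMAP Diversity Plus panel of 12 human primary cell co-culture systems (3C, 4H, LPS, SAg, BT, BF4T, BE3C, CASM3C, HDF3CGF, KF3CT, MyoF, Mphg). Compounds were added 1 h before stimulation and left for 24 h (MyoF 48 h; BT 72 h for soluble read-outs or 6 d for IgG). Biomarkers were read by ELISA, cytotoxicity by SRB, PBMC viability and proliferation by Alamar Blue. Each well value was divided by the mean of 8 DMSO control wells on the same plate and log10 transformed; duplicate blinded samples were tested at 4 concentrations.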

[2] = compound: O=C(O)C(F)(F)C(F)(F)C(F)(F)C(F)(F)C(F)(F)C(F)(F)C(F)(F)C(F)(F)C(F)(F)C(F)F [11-H-Perfluoroundecanoic acid]; conditions: in DMSO
Procedure: as §1

Hexafluoroamylene glycol = compound: OCC(F)(F)C(F)(F)C(F)(F)CO [Hexafluoroamylene glycol]; conditions: in DMSO
Procedure: as §1

[3] = compound: O=S(=O)(O)C(F)(F)C(F)(F)C(F)(F)C(F)(F)C(F)(F)C(F)(F)C(F)(F)C(F)(F)C(F)(F)C(F)(F)F [Sodium perfluorodecanesulfonate]; conditions: in DMSO
Procedure: as §1

[4] = compound: NS(=O)(=O)C(F)(F)C(F)(F)C(F)(F)C(F)(F)C(F)(F)C(F)(F)F [Perfluorohexanesulfonamide]; conditions: in DMSO
Procedure: as §1

[5] = compound: C=CC(=O)OCC(F)(F)C(F)(F)C(F)(F)COC(=O)C=C [1H,1H,5H,5H-Perfluoro-1,5-pentanediol diacrylate]; conditions: 6700 nM; in DMSO
Procedure: as §1

[6] = compound: FC(F)(F)C(F)(F)C(F)(F)C(F)(F)C(F)(F)C(F)(F)CC1CO1 [3-(Perfluorohexyl)-1,2-epoxypropane]; conditions: in DMSO
Procedure: as §1

[7] = compound: O=S(=O)(O)CCC(F)(F)C(F)(F)C(F)(F)C(F)(F)C(F)(F)C(F)(F)F [6:2 Fluorotelomer sulfonic acid]; conditions: in DMSO
Procedure: as §1

Nonafluoropentanamide = compound: NC(=O)C(F)(F)C(F)(F)C(F)(F)C(F)(F)F [Nonafluoropentanamide]; conditions: in DMSO
Procedure: as §1

[8] = compound: O=C(O)C=CC(F)(C(F)(F)F)C(F)(F)F [3-(Perfluoroisopropyl)-2-propenoic acid]; conditions: in DMSO
Procedure: as §1

Heptafluorobutyl iodide = compound: FC(F)(F)C(F)(F)C(F)(F)CI [Heptafluorobutyl iodide]; conditions: in DMSO
Procedure: as §1

Octafluoroadipamide = compound: NC(=O)C(F)(F)C(F)(F)C(F)(F)C(F)(F)C(N)=O [Octafluoroadipamide]; conditions: in DMSO
Procedure: as §1

[9] = compound: FC(F)(F)C(F)(F)C(F)(F)CC1CO1 [1H,1H-Heptafluorobutyl epoxide]; conditions: in DMSO
Procedure: as §1

[10] = compound: O=S(=O)(F)C(F)(F)C(F)(F)C(F)(F)C(F)(F)C(F)(F)C(F)(F)C(F)(F)C(F)(F)F [Perfluorooctanesulfonyl fluoride]; conditions: in DMSO
Procedure: as §1

[11] = compound: FC(F)(F)C(F)(F)C(F)(F)C(F)(F)C(F)(F)C(F)(F)C(F)(F)I [1-Iodopentadecafluoroheptane]; conditions: in DMSO
Procedure: as §1

[12] = compound: NC(=O)C(F)(F)C(F)(F)C(F)(F)C(F)F; conditions: in DMSO
Procedure: as §1

[13] = compound: COC(=O)C(F)(F)C(F)(F)OC(F)(C(F)(F)F)C(F)(F)OC(F)=C(F)F [Methyl perfluoro(3-(1-ethenyloxypropan-2-yloxy)propanoate)]; conditions: in DMSO
Procedure: as §1

[14] = compound: FC(F)(F)C(F)(F)CNCC(F)(F)C(F)(F)F [Bis(1H,1H-perfluoropropyl)amine]; conditions: in DMSO
Procedure: as §1

[15] = compound: C=C(C)C(=O)OCCC(F)(F)C(F)(F)C(F)(F)C(F)(F)C(F)(F)C(F)(F)F [6:2 Fluorotelomer methacrylate]; conditions: in DMSO
Procedure: as §1

LPS:sPGE2
level (log10) ([1]; 6700 nM): 0.0585 ± 0.0078 | level (log10) ([1]; 20000 nM): -0.02 ± 0.016 | level (log10) ([1]; 60000 nM): -0.272 ± 0.03 | level (log10) ([2]; 6700 nM): 0.018 ± 0.023 | level (log10) ([2]; 20000 nM): -0.006 ± 0.042 | level (log10) (Hexafluoroamylene glycol; 6700 nM): -0.0265 ± 0.022 | level (log10) (Hexafluoroamylene glycol; 20000 nM): -0.0255 ± 0.071 | level (log10) (Hexafluoroamylene glycol; 60000 nM): -0.0325 ± 0.054 | level (log10) ([3]; 1500 nM): 0.035 ± 0.02 | level (log10) ([3]; 4400 nM): 0.006 ± 0.041 | level (log10) ([3]; 13000 nM): -0.009 ± 0.04 | level (log10) ([3]; 40000 nM): -0.123 ± 0.023 | level (log10) ([4]; 6700 nM): 0.088 ± 0.014 | level (log10) ([4]; 20000 nM): 0.13 ± 0.032 | level (log10) ([4]; 60000 nM): 0.207 ± 0.046 | level (log10) [5]: -0.105 ± 0.028 | level (log10) ([6]; 6700 nM): 0.022 ± 0.0057 | level (log10) ([6]; 20000 nM): -0.0655 ± 0.0035 | level (log10) ([6]; 60000 nM): -0.047 ± 0.0099 | level (log10) ([7]; 6700 nM): -0.008 ± 0.023 | level (log10) ([7]; 20000 nM): -0.0215 ± 0.047 | level (log10) ([7]; 60000 nM): -0.0345 ± 0.029 | level (log10) (Nonafluoropentanamide; 6700 nM): -0.0015 ± 0.013 | level (log10) (Nonafluoropentanamide; 20000 nM): -0.0115 ± 0.016 | level (log10) (Nonafluoropentanamide; 60000 nM): -0.022 ± 0.0099 | level (log10) ([8]; 6700 nM): 0.01 ± 0.065 | level (log10) ([8]; 20000 nM): 0.046 ± 0.023 | level (log10) ([8]; 60000 nM): 0.0575 ± 0.025 | level (log10) (Heptafluorobutyl iodide; 6700 nM): -0.0175 ± 0.026 | level (log10) (Heptafluorobutyl iodide; 20000 nM): 0.0095 ± 0.064 | level (log10) (Heptafluorobutyl iodide; 60000 nM): 0.0105 ± 0.064 | level (log10) (Octafluoroadipamide; 6700 nM): 0.083 ± 0.037 | level (log10) (Octafluoroadipamide; 20000 nM): -0.04 ± 0.018 | level (log10) (Octafluoroadipamide; 60000 nM): -0.0165 ± 0.026 | level (log10) ([9]; 6700 nM): 0.007 ± 0.03 | level (log10) ([9]; 20000 nM): 0.005 ± 0.05 | level (log10) ([9]; 60000 nM): 0.0105 ± 0.00071 | level (log10) ([10]; 6700 nM): 0.0045 ± 0.039 | level (log10) ([10]; 20000 nM): -0.0015 ± 0.005 | level (log10) ([10]; 60000 nM): -0.0265 ± 0.056 | level (log10) ([11]; 6700 nM): -0.062 ± 0.013 | level (log10) ([11]; 20000 nM): -0.103 ± 0.027 | level (log10) ([12]; 6700 nM): -0.0045 ± 0.028 | level (log10) ([12]; 20000 nM): -0.0005 ± 0.005 | level (log10) ([12]; 60000 nM): 0.0315 ± 0.036 | level (log10) ([13]; 6700 nM): -0.015 ± 0.021 | level (log10) ([13]; 20000 nM): 0.0015 ± 0.029 | level (log10) ([14]; 6700 nM): 0.038 ± 0.033 | level (log10) ([14]; 20000 nM): 0.005 ± 0.0014 | level (log10) ([14]; 60000 nM): 0.0485 ± 0.067 | level (log10) ([15]; 6700 nM): 0.0125 ± 0.0078 | level (log10) ([15]; 20000 nM): 0.027 ± 0.0099 | level (log10) ([15]; 60000 nM): 0.0025 ± 0.046

CASM3C:CD142/Tissue Factor
level (log10) ([1]; 6700 nM): -0.0095 ± 0.04 | level (log10) ([1]; 20000 nM): -0.0455 ± 0.037 | level (log10) ([1]; 60000 nM): -0.0595 ± 0.032 | level (log10) ([2]; 6700 nM): -0.031 ± 0.0085 | level (log10) ([2]; 20000 nM): -0.0365 ± 0.012 | level (log10) (Hexafluoroamylene glycol; 6700 nM): -0.0025 ± 0.016 | level (log10) (Hexafluoroamylene glycol; 20000 nM): -0.0125 ± 0.0035 | level (log10) (Hexafluoroamylene glycol; 60000 nM): 0.008 ± 0.024 | level (log10) ([3]; 1500 nM): 0.044 ± 0.025 | level (log10) ([3]; 4400 nM): -0.0045 ± 0.021 | level (log10) ([3]; 13000 nM): 0.0295 ± 0.036 | level (log10) ([3]; 40000 nM): 0.082 ± 0.016 | level (log10) ([4]; 6700 nM): -0.0145 ± 0.023 | level (log10) ([4]; 20000 nM): -0.0275 ± 0.012 | level (log10) ([4]; 60000 nM): 0.0175 ± 0.018 | level (log10) [5]: -0.0325 ± 0.015 | level (log10) ([6]; 6700 nM): -0.0085 ± 0.005 | level (log10) ([6]; 20000 nM): -0.0415 ± 0.042 | level (log10) ([6]; 60000 nM): 0.005 ± 0.073 | level (log10) ([7]; 6700 nM): -0.01 ± 0.013 | level (log10) ([7]; 20000 nM): -0.0345 ± 0.021 | level (log10) ([7]; 60000 nM): 0.007 ± 0.02 | level (log10) (Nonafluoropentanamide; 6700 nM): 0.0195 ± 0.13 | level (log10) (Nonafluoropentanamide; 20000 nM): 0.0125 ± 0.026 | level (log10) (Nonafluoropentanamide; 60000 nM): -0.031 ± 0.028 | level (log10) ([8]; 6700 nM): -0.037 ± 0.028 | level (log10) ([8]; 20000 nM): -0.0315 ± 0.053 | level (log10) ([8]; 60000 nM): -0.01 ± 0.067 | level (log10) (Heptafluorobutyl iodide; 6700 nM): 0.0065 ± 0.0035 | level (log10) (Heptafluorobutyl iodide; 20000 nM): -0.0175 ± 0.0035 | level (log10) (Heptafluorobutyl iodide; 60000 nM): 0.0095 ± 0.056 | level (log10) (Octafluoroadipamide; 6700 nM): 0.0005 ± 0.028 | level (log10) (Octafluoroadipamide; 20000 nM): -0.006 ± 0.025 | level (log10) (Octafluoroadipamide; 60000 nM): -0.034 ± 0.014 | level (log10) ([9]; 6700 nM): -0.0165 ± 0.016 | level (log10) ([9]; 20000 nM): -0.037 ± 0.027 | level (log10) ([9]; 60000 nM): -0.039 ± 0.02 | level (log10) ([10]; 6700 nM): 0.018 ± 0.0014 | level (log10) ([10]; 20000 nM): 0.0095 ± 0.0035 | level (log10) ([10]; 60000 nM): 0.0025 ± 0.005 | level (log10) ([11]; 6700 nM): -0.0185 ± 0.016 | level (log10) ([11]; 20000 nM): -0.043 ± 0.024 | level (log10) ([12]; 6700 nM): -0.01 ± 0.017 | level (log10) ([12]; 20000 nM): -0.001 ± 0.011 | level (log10) ([12]; 60000 nM): -0.0075 ± 0.00071 | level (log10) ([13]; 6700 nM): 0.0075 ± 0.022 | level (log10) ([13]; 20000 nM): 0.0285 ± 0.012 | level (log10) ([14]; 6700 nM): -0.0175 ± 0.0021 | level (log10) ([14]; 20000 nM): -0.0085 ± 0.054 | level (log10) ([14]; 60000 nM): -0.0095 ± 0.046 | level (log10) ([15]; 6700 nM): -0.0075 ± 0.033 | level (log10) ([15]; 20000 nM): -0.0175 ± 0.029 | level (log10) ([15]; 60000 nM): -0.0035 ± 0.0078
